≈ marks a conversion by molar mass, not a printed value. Like-named read-outs stand apart in the source and are kept apart here. *1 amine or outer side, *2 acyl side, *3 side chain or, on linkers, in order; H or OH if unused. Where a SMILES comes first, the peptide text is derived from it. Bridges are numbered along the chain shown (N, C = ends). [ ]: non-standard residue; d: D form. The star is where a group is joined. TBMB = c1c(C[*:1])cc(C[*:3])cc1C[*:2]; NHDecyl = CCCCCCCCCCN*; NHOctyl = CCCCCCCCN*; NHHex = CCCCCCN*
Legend:
Experiment in all cases: microbe, parasite or virus in culture
B. subtilis (168) = type: cell-based; conditions: for MIC: Bacillus subtilis, read-out: MIC B. subtilis (168)
Method: (§1) Section 4 Biological and biochemical experiments
(§2) 4.1 Minimum inhibitory concentration assay
(§3) MIC values were determined by using the broth microdilution method. Peptides were dissolved first in DMSO and diluted with broth so that the final peptide concentration was 1024 µg/ml and the DMSO concentration was 4%. Peptide serial dilutions were made in TSB in a polypropylene 96-wells plate using 50 µl volumes. An overnight culture of the organism of interest was diluted to and OD600 of 0.01 and grown until they reach 0.5. The culture was then diluted to 1 x 10^6 CFU/ml and 50 µl of this suspension was added to each well. The highest concentrations were then 512 µg/ml peptide and 2% DMSO. The plates were incubated at the preferred growth temperature of the organism that was used and 250 rpm. […] When […]
(§4) determining the MICs of the lipidated peptides, the lipopeptides were first dissolved in DMSO and diluted with TSB so that the peptide concentration was 128 µg/ml and the DMSO concentration was 4%. After inoculation the highest peptide concentration evaluated was 64 µg/ml and the DMSO concentration was 2%. A DMSO control was tested for each strain to ensure the DMSO did not affect the growth of the particular strain. […]

M. luteus (NCTC2665) = type: cell-based, Micrococcus luteus; conditions: for MIC of Ala scan of P8-D against M. luteus: Supplemental table S8, non-lipidated P8 variants, highest tested 512 µg/ml; for MIC: Micrococcus luteus
Method: as §1, §2, §3, §4

E. faecium (VRE155) = type: cell-based, Enterococcus faecium; conditions: for MIC VRE E155: Supplemental table S7, P8 with varying lipids, broth microdilution; for MIC: Enterococcus faecium, read-out: MIC E. faecium (VRE155)
Method: as §1, §2, §3, §4

S. pyogenes (5448) = type: cell-based; conditions: Streptococcus pyogenes, read-out: MIC S. pyogenes (5448)
Method: as §1, §2, §3, §4

S. epidermidis (1587) = type: cell-based; conditions: Staphylococcus epidermidis, read-out: MIC S. epidermidis (1587)
Method: as §1, §2, §3, §4

E. faecium (VRE0321) = type: cell-based, Enterococcus faecium; conditions: Enterococcus faecium, read-out: MIC E. faecium (VRE0321)
Method: as §1, §2, §3, §4

E. faecium (VRE7391) = type: cell-based, Enterococcus faecium; conditions: Enterococcus faecium, read-out: MIC E. faecium (VRE7391)
Method: as §1, §2, §3, §4

E. faecium (VRE2297) = type: cell-based, Enterococcus faecium; conditions: Enterococcus faecium, read-out: MIC E. faecium (VRE2297)
Method: as §1, §2, §3, §4

E. faecium (E980) = type: cell-based, Enterococcus faecium; conditions: Enterococcus faecium, read-out: MIC E. faecium (E980)
Method: as §1, §2, §3, §4

[1] = Supplemental table S6, lipidated phage display hits, n.a. = not active, highest tested conc 64 µg/ml
[2] = Supplemental table S7, P8 with varying lipids, broth microdilution

## CCCCCCCCCCNC(=O)CNC(=O)[C@@H]1CSCc2cc3cc(c2)CSC[C@H](NC(=O)[C@H](CC(N)=O)NC(=O)[C@H](Cc2ccccc2)NC(=O)[C@H](CCCCN)NC(=O)[C@H](CCC(N)=O)NC(=O)[C@@H]2CCCN2C(=O)[C@H](CCCNC(=N)N)NC(=O)[C@@H](NC(=O)[C@H](C)N)CSC3)C(=O)N[C@@H]([C@@H](C)CC)C(=O)N[C@@H](CO)C(=O)N[C@@H](C)C(=O)N[C@@H](CC(N)=O)C(=O)N[C@@H]([C@@H](C)CC)C(=O)N[C@@H](CCCNC(=N)N)C(=O)N1 [Peptide P4-C10] (H-ACRPQKFNCISANIRCG-NHDecyl; linker 2-9-16 via TBMB; N-terminus assumed)
B. subtilis (168); [1]
  MIC B. subtilis: 8 to 16 µg/mL
M. luteus (NCTC2665); [1]
  MIC M. luteus: 8 µg/mL (≈ 3.75 µM)

## CCCCCCNC(=O)CNC(=O)[C@H]1CSCc2cc3cc(c2)CSC[C@@H](NC(=O)[C@@H](CC(C)C)NC(=O)[C@@H](CC(C)C)NC(=O)[C@@H](CO)NC(=O)[C@@H](CCC(N)=O)NC(=O)[C@@H](CC(C)C)NC(=O)[C@@H](CC(C)C)NC(=O)[C@H](NC(=O)[C@@H](C)N)CSC3)C(=O)N2CCC[C@@H]2C(=O)N[C@H](Cc2ccc(O)cc2)C(=O)N[C@H](CO)C(=O)N[C@H]([C@H](C)O)C(=O)N[C@H](Cc2c[nH]cn2)C(=O)N[C@H](CCCNC(=N)N)C(=O)N1 [Peptide P8-D-C6] (H-[dA][dC][dL][dL][dQ][dS][dL][dL][dC][dP][dY][dS][dT][dH][dR][dC]G-NHHex; linker 2-9-16 via TBMB; N-terminus assumed)
M. luteus (NCTC2665); [2]
  MIC M. luteus: 32 µg/mL (≈ 15.5 µM)
E. faecium (VRE155)
  MIC VRE E155: 16 to 32 µg/mL

## CCCCCCCCNC(=O)CNC(=O)[C@H]1CSCc2cc3cc(c2)CSC[C@@H](NC(=O)[C@@H](CC(C)C)NC(=O)[C@@H](CC(C)C)NC(=O)[C@@H](CO)NC(=O)[C@@H](CCC(N)=O)NC(=O)[C@@H](CC(C)C)NC(=O)[C@@H](CC(C)C)NC(=O)[C@H](NC(=O)[C@@H](C)N)CSC3)C(=O)N2CCC[C@@H]2C(=O)N[C@H](Cc2ccc(O)cc2)C(=O)N[C@H](CO)C(=O)N[C@H]([C@H](C)O)C(=O)N[C@H](Cc2c[nH]cn2)C(=O)N[C@H](CCCNC(=N)N)C(=O)N1 [Peptide P8-D-C8] (H-[dA][dC][dL][dL][dQ][dS][dL][dL][dC][dP][dY][dS][dT][dH][dR][dC]G-NHOctyl; linker 2-9-16 via TBMB; N-terminus assumed)
M. luteus (NCTC2665); [2]
  MIC M. luteus: 16 µg/mL (≈ 7.65 µM)
E. faecium (VRE155)
  MIC VRE E155: 8 to 16 µg/mL

## CC(C)C[C@H]1NC(=O)[C@H](NC(=O)[C@@H](C)N)CSCc2cc3cc(c2)CSC[C@@H](NC(=O)[C@@H](CC(C)C)NC(=O)[C@@H](CC(C)C)NC(=O)[C@@H](CO)NC(=O)[C@@H](CCC(N)=O)NC(=O)[C@@H](CC(C)C)NC1=O)C(=O)N1CCC[C@@H]1C(=O)N[C@H](Cc1ccc(O)cc1)C(=O)N[C@H](CO)C(=O)N[C@H]([C@H](C)O)C(=O)N[C@H](Cc1c[nH]cn1)C(=O)N[C@H](C)C(=O)N[C@@H](C(=O)NCC(N)=O)CSC3 [Peptide P8-D-R15A] (H-[dA][dC][dL][dL][dQ][dS][dL][dL][dC][dP][dY][dS][dT][dH][dA][dC]G-NH2; linker 2-9-16 via TBMB; N-terminus assumed)
M. luteus (NCTC2665); broth microdilution
  MIC of Ala scan of P8-D against M. luteus: 128 to 256 µg/mL

## CC(C)C[C@H]1NC(=O)[C@@H](C)NC(=O)[C@@H](CCC(N)=O)NC(=O)[C@@H](CC(C)C)NC(=O)[C@@H](CC(C)C)NC(=O)[C@H](NC(=O)[C@@H](C)N)CSCc2cc3cc(c2)CSC[C@@H](NC(=O)[C@@H](CC(C)C)NC1=O)C(=O)N1CCC[C@@H]1C(=O)N[C@H](Cc1ccc(O)cc1)C(=O)N[C@H](CO)C(=O)N[C@H]([C@H](C)O)C(=O)N[C@H](Cc1c[nH]cn1)C(=O)N[C@H](CCCNC(=N)N)C(=O)N[C@@H](C(=O)NCC(N)=O)CSC3 [Peptide P8-D-S6A] (H-[dA][dC][dL][dL][dQ][dA][dL][dL][dC][dP][dY][dS][dT][dH][dR][dC]G-NH2; linker 2-9-16 via TBMB; N-terminus assumed)
M. luteus (NCTC2665); broth microdilution
  MIC of Ala scan of P8-D against M. luteus: 64 to 128 µg/mL

## CC(C)C[C@H]1NC(=O)[C@H](NC(=O)[C@@H](C)N)CSCc2cc3cc(c2)CSC[C@@H](NC(=O)[C@@H](CC(C)C)NC(=O)[C@@H](CC(C)C)NC(=O)[C@@H](CO)NC(=O)[C@@H](CCC(N)=O)NC(=O)[C@@H](CC(C)C)NC1=O)C(=O)N1CCC[C@@H]1C(=O)N[C@H](Cc1ccc(O)cc1)C(=O)N[C@H](C)C(=O)N[C@H]([C@H](C)O)C(=O)N[C@H](Cc1c[nH]cn1)C(=O)N[C@H](CCCNC(=N)N)C(=O)N[C@@H](C(=O)NCC(N)=O)CSC3 [Peptide P8-D-S12A] (H-[dA][dC][dL][dL][dQ][dS][dL][dL][dC][dP][dY][dA][dT][dH][dR][dC]G-NH2; linker 2-9-16 via TBMB; N-terminus assumed)
M. luteus (NCTC2665); broth microdilution
  MIC of Ala scan of P8-D against M. luteus: 512 µg/mL

## CC(C)C[C@H]1NC(=O)[C@H](NC(=O)[C@@H](C)N)CSCc2cc3cc(c2)CSC[C@@H](NC(=O)[C@@H](CC(C)C)NC(=O)[C@@H](CC(C)C)NC(=O)[C@@H](CO)NC(=O)[C@@H](CCC(N)=O)NC(=O)[C@@H](CC(C)C)NC1=O)C(=O)N1CCC[C@@H]1C(=O)N[C@H](Cc1ccc(O)cc1)C(=O)N[C@H](CO)C(=O)N[C@H](C)C(=O)N[C@H](Cc1c[nH]cn1)C(=O)N[C@H](CCCNC(=N)N)C(=O)N[C@@H](C(=O)NCC(N)=O)CSC3 [Peptide P8-D-T13A] (H-[dA][dC][dL][dL][dQ][dS][dL][dL][dC][dP][dY][dS][dA][dH][dR][dC]G-NH2; linker 2-9-16 via TBMB; N-terminus assumed)
M. luteus (NCTC2665); broth microdilution
  MIC of Ala scan of P8-D against M. luteus: 512 µg/mL

## CC(C)C[C@H]1NC(=O)[C@H](NC(=O)[C@@H](C)N)CSCc2cc3cc(c2)CSC[C@@H](NC(=O)[C@@H](CC(C)C)NC(=O)[C@@H](CC(C)C)NC(=O)[C@@H](CO)NC(=O)[C@@H](CCC(N)=O)NC(=O)[C@@H](CC(C)C)NC1=O)C(=O)N1CCC[C@@H]1C(=O)N[C@H](C)C(=O)N[C@H](CO)C(=O)N[C@H]([C@H](C)O)C(=O)N[C@H](Cc1c[nH]cn1)C(=O)N[C@H](CCCNC(=N)N)C(=O)N[C@@H](C(=O)NCC(N)=O)CSC3 [Peptide P8-D-Y11A] (H-[dA][dC][dL][dL][dQ][dS][dL][dL][dC][dP][dA][dS][dT][dH][dR][dC]G-NH2; linker 2-9-16 via TBMB; N-terminus assumed)
M. luteus (NCTC2665); broth microdilution
  MIC of Ala scan of P8-D against M. luteus: 512 µg/mL

## CC(C)C[C@H]1NC(=O)[C@H](NC(=O)[C@@H](C)N)CSCc2cc3cc(c2)CSC[C@@H](NC(=O)[C@@H](CC(C)C)NC(=O)[C@@H](CC(C)C)NC(=O)[C@@H](CO)NC(=O)[C@@H](CCC(N)=O)NC(=O)[C@@H](CC(C)C)NC1=O)C(=O)N1CCC[C@@H]1C(=O)N[C@H](Cc1ccc(O)cc1)C(=O)N[C@H](CO)C(=O)N[C@H]([C@H](C)O)C(=O)N[C@H](Cc1c[nH]cn1)C(=O)N[C@H](CCCNC(=N)N)C(=O)N[C@@H](C(=O)NCC(N)=O)CSC3 [Peptide P8] (H-[dA][dC][dL][dL][dQ][dS][dL][dL][dC][dP][dY][dS][dT][dH][dR][dC]G-NH2; linker 2-9-16 via TBMB; N-terminus assumed)
M. luteus (NCTC2665); broth microdilution
  MIC of Ala scan of P8-D against M. luteus: 128 µg/mL
M. luteus (NCTC2665); Table 1, non-lipidated bicyclic peptides, broth microdilution in TSB, 16 h, read visually, n.a. = no activity, highest tested concentration 512 μg mL^–1
  MIC against M. luteus: 64–128 μg mL^–1

## CN[C@H](CC(C)C)C(=O)N[C@H]1C(=O)N[C@@H](CC(N)=O)C(=O)N[C@H]2C(=O)N[C@H]3C(=O)N[C@H](C(=O)N[C@H](C(=O)O)c4cc(O)cc(O)c4-c4cc3ccc4O)[C@H](O)c3ccc(c(Cl)c3)Oc3cc2cc(c3O[C@@H]2O[C@H](CO)[C@@H](O)[C@H](O)[C@H]2O[C@H]2C[C@](C)(N)[C@H](O)[C@H](C)O2)Oc2ccc(cc2Cl)[C@H]1O [Vancomycin]
S. pyogenes (5448); 16 h
  MIC: < 1 µg/mL
S. pyogenes (5448)
  MIC: < 0.7 µM
B. subtilis (168); 16 h
  MIC: < 1 µg/mL
B. subtilis (168)
  MIC: < 0.7 µM
S. epidermidis (1587); 16 h
  MIC: 2 µg/mL
S. epidermidis (1587)
  MIC: 1.4 µM
M. luteus (NCTC2665); NCTC2665, 16 h, read-out: MIC M. luteus (NCTC2665)
  MIC: < 1 µg/mL
M. luteus (NCTC2665); NCTC2665, read-out: MIC M. luteus (NCTC2665)
  MIC: < 0.7 µM
E. faecium (VRE155); 16 h
  MIC: 64 µg/mL
E. faecium (VRE155)
  MIC: 44.2 µM
E. faecium (VRE0321); 16 h
  MIC: > 64 µg/mL
E. faecium (VRE0321)
  MIC: > 44.2 µM
E. faecium (VRE7391); 16 h
  MIC: > 64 µg/mL
E. faecium (VRE7391)
  MIC: > 44.2 µM
E. faecium (VRE2297); 16 h
  MIC: > 64 µg/mL
E. faecium (VRE2297)
  MIC: > 44.2 µM
E. faecium (E980); 16 h
  MIC: < 1 µg/mL
E. faecium (E980)
  MIC: < 0.7 µM
